According to patent US20200331950A1, “SGLTS INHIBITOR AND APPLICATION THEREOF” (SHANDONG DANHONG PHARMACEUTICAL CO., LTD., priority 2018, published 2020):

Assay: In vivo pharmacokinetics in Beagle dogs
Conditions: male Beagle dogs
From the text: Study on the In Vivo Pharmacokinetics in Beagle Dogs
The purpose of the experiment: Male beagle (Beagle) dogs were used as test animals and were given a single administration to determine the plasma concentration of the compound and evaluate the pharmacokinetic behavior.
Experimental method: Six male Beagle dogs were divided into 2 groups, with 3 dogs in an intravenous injection group and 3 dogs in an oral administration group. In the intravenous injection group, the test compound was mixed with an appropriate amount of vehicle (20% polyethylene glycol-400 (PEG400)/10% polyethylene glycol-15 hydroxy stearate (available from solutol)/70% water), then vortexed and sonicated to prepare 1 mg/mL clear solution, which was filtered by microporous membrane. In the oral administration group, 20% polyethylene glycol-400 (PEG400)/10% polyethylene glycol-15 hydroxy stearate (available from solutol)/70% water was used as a vehicle and mixed with the test compound, then vortexed and sonicated to prepare 1 mg/mL clear solution. The dogs were given intravenous administration at a dose of 1 mg/kg or oral administration at a dose of 2 mg/kg. Whole blood was collected at a certain period of time to prepare the plasma. The drug concentration of the plasma was analyzed by LC-MS/MS method, and the pharmacokinetic parameters were calculated using Phoenix WinNonlin software (Pharsight Company, USA).

CCc1ccc([C@@H]2O[C@H](SC)[C@@H](O)[C@H](O)[C@H]2O)cc1Cc1ccc(C2=CCC(F)(F)CC2)cc1 [WXD010]
clearance (dog, plasma, intravenous 1 mg/kg or oral 2 mg/kg, read-out: Cl (clearance rate)): 6.9 mL/min/kg
half-life (dog, plasma, intravenous 1 mg/kg or oral 2 mg/kg, read-out: T1/2 (half-life) (converted)): 144 min
Vd (dog, plasma, intravenous 1 mg/kg or oral 2 mg/kg, read-out: Vdss (distribution volume)): 1.49 L/kg
bioavailability (dog, plasma, intravenous 1 mg/kg, oral 2 mg/kg, read-out: F % (oral bioavailability)): 82%
Cmax (dog, single administration, intravenous 1 mg/kg or oral 2 mg/kg, plasma): 1290 nM
Oral DNAUC (AUCPO/Dose) (oral 2 mg/kg): 4051 nM · h/mpk
